Data on 15 compounds can be found in EP0584223B1, “NOVEL IMMUNOSUPPRESSIVE COMPOUNDS” (VERTEX PHARMACEUTICALS INCORPORATED, priority 1991, dated 1992).

The structures appear in SMILES notation. Read-outs that look alike come from different tables or passages of the source.

One experiment addresses FKBP (Homo sapiens, UniProt P62942). As to the kind of experiment: Inhibition of FKBP PPIase (rotamase) activity, chymotrypsin-coupled assay. Format: biochemical. Conditions: apparent Ki. An excerpt: The inhibition of the PPIase (rotamase) enzyme activity of the FKBP (apparent "Ki" values) can also be measured according to the methods described by either Harding, M.W. et al., Nature 341:758-760 (1989) or Siekierka, J.J. et al., Nature 341:755-757 (1989). The cis-trans isomerization of the […] peptide bond in a model substrate, N-succinyl-Ala-Ala-Pro-Phe-p-nitroanilide, is monitored spectrophotometrically in a coupled assay with chymotrypsin, which releases 4-nitroanilide from the trans form of the substrate. Fischer, G. et al., Nature 337:476-478 (1989). The inhibitory effect of the addition of different concentrations of inhibitor on the extent of the reaction is determined, and analysis of the change in first order rate constant as a function of inhibitor concentration yields an estimate of the apparent Ki value.

Experiment [1] concerns human peripheral blood lymphocytes (PBC). As to the kind of experiment: Mitogenesis assay, PMA plus ionomycin stimulated proliferation. Format: cell-based. The following applies: Lymphocyte, read-out: PMA.
From the text: (§4) Fresh peripheral blood lymphocytes (PBLs) from LeukoPak cells or whole blood from random normal blood donors (tested HIV-negative and hepatitis negative) are isolated and separated by density centrifugation over Histopaque 1077 (Sigma Chemical Co., St. Louis, MO). […] The human allogeneic B cell lines used for activation of the fresh PBLs are EBV-transformed lymphocytes from normal healthy adult donors with two completely different HLA haplotypes. All cell lines were routinely tested for the presence of Mycoplasma contamination using the Gibco Mycotect test kit and are Mycoplasma-free. Culture medium consists of RPMI 1640 (Gibco, Grand Island, NY) containing penicillin (50 U/ml) and streptomycin (50 µg/ml), L-glutamine 2 mM, 2 mercaptoethanol (5 x 10^-5), 10% heat-inactivated FCS and 10 mM HEPES.
Experiment [2] relates to PBLs stimulated with JVM human viral-transformed B lymphoblastoid cell line. As to the kind of experiment: MLR bioassay, PBLs stimulated with JVM cells. Format: cell-based. The following applies: read-out: JVM. An excerpt:
(§1) Fresh peripheral blood lymphocytes (PBLs) from LeukoPak cells or whole blood from random normal blood donors (tested HIV-negative and hepatitis negative) are isolated and separated by density centrifugation over Histopaque 1077 (Sigma Chemical Co., St. Louis, MO). The murine CTLL cytotoxic T cell line and the human Jurkat T cell line are from ATCC (CTLL-2 ATCC TIB214, JURKAT CLONE E6-1 ATCC TIBl52). The human allogeneic B cell lines used for activation of the fresh PBLs are EBV-transformed lymphocytes from normal healthy adult donors with two completely different HLA haplotypes. All cell lines were routinely tested for the presence of Mycoplasma contamination using the Gibco Mycotect test kit and are Mycoplasma-free. Culture medium consists of RPMI 1640 (Gibco, Grand Island, NY) containing penicillin (50 U/ml) and streptomycin (50 µg/ml), L-glutamine 2 mM, 2 mercaptoethanol (5 x 10^-5), 10% heat-inactivated FCS and 10 mM HEPES.
(§2) All chemical stocks were dissolved in DMSO.
(§3) Antigen activated proliferation of PBLs in a primary mixed lymphocyte reaction was assessed in the presence or absence of different concentrations of tested compounds and control drugs. 5 x 10^4 fresh PBLs were stimulated with 5 x 10^3 of Mitomycin C treated-allogeneic EBV-transformed […] cells, LB and JVM, in a final volume of 200 µl per well in 96-well round-bottomed plates (Mishell, B.B. and S.M. Shiigi, Selected Methods in Cellular Immunology W.H. Freeman and Co., San Francisco, CA (1980); Nelson, P.A. et al., Transplantation 50:286 (1990)). Cultures were pulsed on day 6, harvested 24 h later and counted as in previous section.

For experiment [3], the system named is human peripheral blood lymphocytes (PBC). As to the kind of experiment: Mitogenesis assay, OKT3 stimulated proliferation. Format: cell-based. The following applies: Lymphocyte, read-out: OKT3.
From the text: as §4
The subject of experiment [4] is PBLs stimulated with LB human viral-transformed B lymphoblastoid cell line. As to the kind of experiment: MLR bioassay, PBLs stimulated with LB cells. Conditions: read-out: LB. Format: cell-based.
From the text: as §1, §2, §3

In experiment [5] the test system is CTLL-20 murine T cell line. As to the kind of experiment: IL-2 microassay, IL-2 dependent CTLL proliferation. Format: cell-based. Conditions: Mus musculus, read-out: CTLL.
From the text: as §4
Another experiment concerns the target FK-506 binding protein (Homo sapiens, UniProt P62942). As to the kind of experiment: Competitive binding assay with [3H]dihydro-FK-506. Conditions: binding to FKBP; apparent Kd, competition with [3H]dihydro-FK-506.
For the next experiment, the system named is CTLL cells. As to the kind of experiment: Table 3 assay 4: CTLL proliferation + IL-2. Format: cell-based. The following applies: Mus musculus, exogenous IL-2, (3H)TdR incorporation.
Experiment [6] relates to T-cell clone stimulated with antibody to the T-cell receptor (TCR) and antibody to CD2. As to the kind of experiment: Table 3 assay 2: T-cell hybridoma + TCR/CD2 proliferation. Format: cell-based. Conditions: (3H)TdR incorporation, estimated.
For experiment [7], the system named is fresh human peripheral blood lymphocytes. As to the kind of experiment: Table 3 assay 1: human PBL + OKT3 proliferation. Format: cell-based. Conditions: Lymphocyte, OKT3 antibody (anti-CD3) stimulation, (3H)TdR incorporation, estimated.
[8] abbreviates: mixed lymphocyte reaction, JVM stimulator cells, inhibition of proliferation.
[9] abbreviates: OKT3 (10^-4 dilution final), inhibition of proliferation, 3H-thymidine.
Where [10] appears, read: mixed lymphocyte reaction, LB stimulator cells, inhibition of proliferation.
Where [11] appears, read: inhibition of proliferation of cytotoxic T cells stimulated by IL-2.

Chain of FK-506 binding protein (P62942 whole entry): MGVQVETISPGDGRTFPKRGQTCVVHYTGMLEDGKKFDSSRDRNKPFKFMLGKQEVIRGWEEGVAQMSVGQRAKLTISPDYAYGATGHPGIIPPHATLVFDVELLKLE
Chain of FKBP (P62942 whole entry): as above

Regarding `COc1cc(C(=O)C(=O)N2CCCC[C@H]2C(=O)OC(CCCc2ccccc2)/C(C)=C/[C@H]2CC[C@H](O)CC2)cc(OC)c1OC` (mixture of isomers) [Compound 8, (R and S)-(E)-1-[trans-(4-Hydroxycyclohexyl)]-2-methyl-6-phenyl-3-hex-1-enyl (S)-N-(3,4,5-trimethoxyphenylglyoxyl)pipecolate], at FKBP, the Ki was determined as 0.027 µM. Besides, the IC50 in experiment [1] (3 h) is 4 µM; in [2] (setting [8]), 10 µM; in experiment [3] (setting [9]), 5 µM; in experiment [4] (setting [10]), 10 µM; in experiment [5] (setting [11]), 4 µM. Also, the Kd on FK-506 binding protein is 0.03 µM.

On to `COc1cc(C(=O)C(=O)N2CCCC[C@H]2C(=O)OC(CCCc2ccccc2)c2ccccc2)cc(OC)c1OC` (stereo partly drawn) [Compound 6], for which the Ki at FKBP turned out to be 0.08 µM. Also, the IC50 in [1] (3 h) stood at 8 µM; in [2] (setting [8]), 9 µM; in [3] (setting [9]) it was 8 µM; in [4] (setting [10]), 10 µM; in experiment [5] (setting [11]), 5 µM. For the same compound, the Kd at FK-506 binding protein was 0.04 µM.

For the compound `COc1ccc(CCC(CCCc2ccccc2)OC(=O)[C@@H]2CCCCN2C(=O)C(=O)c2cc(OC)c(OC)c(OC)c2)cc1` (stereo partly drawn) [Compound 13], the Ki on FKBP was determined as 0.004 µM. Besides, the IC50 in experiment [1] (3 h) is 8 µM; in experiment [2] (setting [8]), > 10 µM; in [3] (setting [9]), 10 µM; in experiment [4] (setting [10]) it was > 10 µM; in experiment [5] (setting [11]) it was 9 µM. The Kd on FK-506 binding protein came to 0.027 µM.

Consider `COc1ccc(CCCC(CCCc2ccccc2)OC(=O)[C@@H]2CCCCN2C(=O)C(=O)c2cc(OC)c(OC)c(OC)c2)cc1` (stereo partly drawn) [Compound 17], for which the Ki on FKBP was determined as 0.003 µM. Besides, the IC50 is 4.5 µM in experiment [1]; 7 µM in experiment [2]; 2.5 µM in [3]; 5.5 µM in [4]; > 10 µM in experiment [5] (CTLL). Further, at FK-506 binding protein, the Kd amounted to 0.068 µM.

In the case of `COc1cc(C(=O)C(=O)N2CCCC[C@H]2C(=O)OC(CCCc2ccccc2)CCCc2ccc(CO)cc2)cc(OC)c1OC` (stereo partly drawn) [Compound 26], on FKBP, the Ki is 0.004 µM. The IC50 was found to be 3 µM in [1] (3 h); 2.5 µM in [2] (setting [8]); 1 µM in experiment [3] (setting [9]); 3 µM in experiment [4] (setting [10]); 4 µM in experiment [5] (setting [11]). Also, the Kd at FK-506 binding protein is 0.019 µM.

In the case of `C=CCOc1cccc(C(=O)C(=O)N2CCCC[C@H]2C(=O)OC(CCCc2ccccc2)CCCc2cccnc2)c1` (stereo partly drawn) [Compound 28], the Ki at FKBP came to 0.011 µM. Also, the IC50 in [1] (3 h) is 5 µM; in experiment [2] (setting [8]), 9 µM; in experiment [3] (setting [9]), 6 µM; in experiment [4] (setting [10]) it was 8 µM; in experiment [5] (setting [11]) it was 3 µM.

Turning to `CC(C)Oc1cccc(C(=O)C(=O)N2CCCC[C@H]2C(=O)OC(CCCc2ccccc2)CCCc2cccnc2)c1` (stereo partly drawn) [Compound 29], the Ki on FKBP was 0.002 µM. Moreover, the IC50 is 10 µM in [1] (3 h); > 10 µM in [2] (setting [8]); 8 µM in experiment [3] (setting [9]); > 10 µM in [4] (setting [10]); 4 µM in [5] (setting [11]). The Kd on FK-506 binding protein came to 0.003 µM.

Turning to `COc1cc(C(=O)C(=O)N2CCCC[C@H]2C(=O)OC(CCCCc2ccccc2)CCCc2ccccc2)cc(OC)c1OC` (stereo partly drawn) [Compound 32], the Ki on FKBP worked out at 0.02 µM. The IC50 was 9 µM in [1] (3 h); > 10 µM in [2] (setting [8]); 8 µM in experiment [3] (setting [9]); > 10 µM in experiment [4] (setting [10]); 7.5 µM in [5] (setting [11]).

On to `COc1cc(C(=O)C(=O)N2CCCC[C@H]2C(=O)OC(CCCc2ccccc2)c2ccccc2CO)cc(OC)c1OC` (stereo partly drawn) [Compound 33], for which the Ki at FKBP came out at 0.089 µM. The IC50 in [1] (3 h) stood at 5 µM; in experiment [2] (setting [8]) it was 4.5 µM; in experiment [3] (setting [9]), 5 µM; in experiment [4] (setting [10]) it was 2 µM; in [5] (setting [11]), 3 µM.

As to `COc1cc(C(=O)C(=O)N2CCCC[C@H]2C(=O)OC(CCCc2ccccc2)CCCc2cccc(CO)c2)cc(OC)c1OC` (stereo partly drawn) [Compound 35], the Ki on FKBP stood at 0.001 µM. Also, the IC50 in experiment [1] (3 h) came out at 2.7 µM; in [2] (setting [8]), 3 µM; in experiment [3] (setting [9]), 6.5 µM; in experiment [4] (setting [10]), 2.5 µM; in [5] (setting [11]), 2.5 µM. For the same compound, on FK-506 binding protein, the Kd came out at 0.04 µM.

As to `COc1cc(C(=O)C(=O)N2CCCC[C@H]2C(=O)OC(CCCc2ccccc2)CCCc2cccc(C(=O)O)c2)cc(OC)c1OC` (stereo partly drawn) [Compound 36], the Ki at FKBP was 0.004 µM. For the same compound, the IC50 is > 10 µM in experiment [1] (3 h); 9 µM in experiment [2] (setting [8]); > 10 µM in [3] (setting [9]); > 10 µM in [4] (setting [10]); > 10 µM in experiment [5] (setting [11]). For the same compound, at FK-506 binding protein, the Kd was found to be 0.02 µM.

As to `COc1cc(C(=O)C(=O)N2CCCC[C@H]2C(=O)OC(CCCc2ccccc2)c2cccc(CO)c2)cc(OC)c1OC` (stereo partly drawn) [Compound 37], the Ki at FKBP was found to be 0.007 µM. The IC50 in experiment [1] (3 h) came to 2 µM; in experiment [2] (setting [8]), 2.2 µM; in experiment [3] (setting [9]), 5 µM; in experiment [4] (setting [10]), 1.2 µM; in [5] (setting [11]) it was 1.2 µM. Further, the Kd at FK-506 binding protein was found to be 0.14 µM.

Consider `COc1cc(C(=O)C(=O)N2CCCC[C@H]2C(=O)OC(CCCCc2ccccc2)CCCc2cccs2)cc(OC)c1OC` (stereo partly drawn) [Compound 40], for which the Ki on FKBP came to 1.1 µM. The IC50 in experiment [1] (3 h) was > 10 µM; in experiment [2] (setting [8]), > 10 µM; in experiment [3] (setting [9]), > 10 µM; in experiment [4] (setting [10]), > 10 µM; in experiment [5] (setting [11]) it was 10 µM.

In the case of `COc1cc(C(=O)C(=O)N2CCCC[C@H]2C(=O)OC(CCCCCc2ccccc2)CCCc2ccccc2)cc(OC)c1OC` (stereo partly drawn) [Compound 41], the Ki at FKBP amounted to 0.045 µM. The IC50 was 7 µM in [1] (3 h); 10 µM in experiment [2] (setting [8]); > 10 µM in experiment [3] (setting [9]); > 10 µM in experiment [4] (setting [10]); > 10 µM in experiment [5] (setting [11]).

Consider `C=CC[C@@H]1/C=C(\C)C[C@H](C)C[C@H](OC)[C@H]2O[C@@](O)(C(=O)C(=O)N3CCCC[C@H]3C(=O)O[C@H](/C(C)=C/[C@@H]3CC[C@@H](O)[C@H](OC)C3)[C@H](C)[C@@H](O)CC1=O)[C@H](C)C[C@@H]2OC` [FK-506], for which the IC50 in the experiment with CTLL cells was > 1 µg/mL; in [6], < 1 µg/mL; in [7], < 1 µg/mL.
